# Several values for one entry are separate records, joined by “and”; a condition that tells them apart may be missing. Identical values can stand only once. Like-named read-outs stand apart in the source and are kept apart here.
# Tests used:
# BL-41 cells = test: CellTiter-Blue assay, BL-41; type: cell-based, human
# Experimental: (§1) Example NMT inhibitors of the present invention were tested for activity in in vitro CellTiter-Blue® assays using the human cell line MDA MB 231, LY 12318, or BL-41. Comparative Examples 1 and 2 were also tested in the same assays. Compounds having activity in inhibiting metabolic activity in the assay are expected to be useful as agents for preventing and/or treating cancer, by virtue of being inhibitors of human NMT1 and/or NMT2.
# (§2) MDA MB 231 cells (obtained from Professor Eric Aboagye, Hammersmith Hospital; cell type: triple negative breast cancer) were grown in low glucose DMEM in 5% CO2 media (supplemented with 10% FBS); LY 12318 cells (obtained from Dr Martin Janz, Max Delbrueck Center; cell type: B cell lymphoma patient derived xenograft) were grown in DMEM media (supplemented with 10% FBS); and BL-41 cells (obtained from Cell Services at the Crick Institute; cell type: Burkitt's Lymphoma) were grown in RPMI-1640 media in 5% CO2 (supplemented with 10% FBS). The MDA MB 231 cells, LY 12318 cells or BL-41 cells were seeded in 96-well plates, 24 h prior to treatment. Cell suspensions were prepared by adjusting the cell density to the appropriate concentration (as stated in the Table 2 below) and 50 μL of the cell suspension was transferred to wells B-G in columns 2-11 of a 96-well plate.
# (§3) Twenty-four hours later, 50 μl of growth media (low glucose DMEM in 5% CO2 media supplemented with 10% FBS for MDA MB 231 cells; DMEM media in 5% CO2 supplemented with 10% FBS for LY 12318 cells; or RPMI-1640 media supplemented with 10% FBS for BL-41 cells) containing 0.0004% DMSO (positive control), a mix of Puromycin and Staurosporine (negative controls, final concentration 2 μg/mL and 1 μM respectively) or different concentrations of each Example (Example 1 and 2) or each Comparative Example (Comparative Example 1 and 2) (dilution factor=3, starting at […], final concentration in the plate starting from 10 μM) were prepared and added to a well of the 96-well plate. The plate was incubated at 37° C. with 5% CO2 level.
# (§4) 72 hours later, 20 μl/well CellTiter-Blue® (G8081, Promega) were added to the plates according to the manufacturer's protocol, the plate was incubated at 37° C. for 4 h for MDA MB 231 cells and BL-41 cells, or 3 h for LY 12318 cells, followed by measuring the absorbance per well at 570 nm using an EnVision plate reader. The negative control values were subtracted from every value. The metabolic activity was calculated as a percentage relative to the positive control. The EC50 values were calculated using GraphPad Prism.
# LY 12318 cells = test: CellTiter-Blue assay, LY 12318; type: cell-based, human; conditions: 72 h, read-out: LY12318 EC50
# Experimental: as §1, §2, §3, §4
# [1] = Human liver microsomes half life; type: in vitro ADME; conditions: pH 7.4, read-out: Human liver microsomes t ½
# Experimental: Example Compound 1 was tested for metabolic stability in an assay using human liver microsomes. Comparative Examples 2, 3, 4, 5 and 6 were also tested in the same assay. Compounds having good metabolic stability in the assay are expected to be especially useful as agents for preventing and/or treating cancer, by having a long half-life in human patients
# Frozen human liver microsomes obtained from Corning, USA (cat #452117) were thawed and diluted with 100 mM of pH 7.4 phosphate buffer to give a 1 mg/ml solution. An NADPH regeneration system (NRS) was prepared as a solution containing 13 mM NADP, 33 mM glucose-6-phosphate, 33 mM MgCl2 and 4U/mL glucose-6-phosphate dehydrogenase in 100 mM of pH7.4 phosphate buffer. The test compound (4 mM) in DMSO was diluted with acetonitrile to provide a 100 μM sub-stock then further diluted with 100 mM of pH7.4 phosphate buffer to provide a 2 μM working solution. The liver microsome solution and NRS were incubated at 37° C. before use. To each well of the test plate was dispensed 60 μL of buffer, 50 μL of test compound solution and 10 μL of NRS. A reaction was initiated by addition of 40 μL of liver microsome solution. Wells were incubated for an appropriate time (0, 5, 10, 20, 30 and 60 min) then quenched with 300 μL of acetonitrile containing reference standards atenolol, propranolol, diclofenac, verapamil). All plates were centrifuged at 3500 rpm for 20 min at 15° C. to pellet the debris. 110 μL supernatant was diluted 110 μL water and quantitated using LC-MS/MS.
# The results were used to calculate the % Remaining of the test compound at time point t=100×˜[(AUC at time point t)/(AUC at T=0)]. A linear regression curve was fitted to a plot of natural logarithm (In) of AUC against time. The T-half (min)=0.693/slope.
# MDA MB 231 cells = test: CellTiter-Blue assay, MDA MB 231; type: cell-based, human
# Experimental: as §1, §2, §3, §4
# human NMT1 (HsNMT1) = target: T1, human NMT1 (HsNMT1) (Homo sapiens, UniProt P30419); test: HsNMT1 IC50, fluorescence-based assay detecting CoA with CPM; type: biochemical
# T1 sequence (P30419 1-496): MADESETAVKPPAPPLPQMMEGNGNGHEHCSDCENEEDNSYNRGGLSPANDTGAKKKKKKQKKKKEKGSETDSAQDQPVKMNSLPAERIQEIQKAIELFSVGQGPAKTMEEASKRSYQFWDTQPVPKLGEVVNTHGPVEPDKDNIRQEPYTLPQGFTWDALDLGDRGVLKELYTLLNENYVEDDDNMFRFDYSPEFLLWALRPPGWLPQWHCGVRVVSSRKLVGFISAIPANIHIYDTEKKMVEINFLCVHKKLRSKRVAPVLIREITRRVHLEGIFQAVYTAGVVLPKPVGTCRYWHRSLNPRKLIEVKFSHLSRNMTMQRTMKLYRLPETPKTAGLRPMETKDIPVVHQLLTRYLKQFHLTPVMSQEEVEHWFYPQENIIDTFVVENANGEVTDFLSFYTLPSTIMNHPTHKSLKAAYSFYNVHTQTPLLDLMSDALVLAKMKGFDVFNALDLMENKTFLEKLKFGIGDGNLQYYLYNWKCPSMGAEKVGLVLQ
# Experimental: The IC50 values for human NMT1 (HsNMT1) of four Example compounds of the invention described above (Examples 1-4) and six comparative examples (Comparative Examples 1, 2, 3, 4, 5 and 6) were measured using a sensitive fluorescence-based assay based on detection of CoA by 7-diethylamino-3-(4-maleimido-phenyl)-4-methylcoumarin, as described in Goncalves, V., et al., Analytical Biochemistry, 2012, 421, 342-344 and Goncalves, V., et al., J. Med. Chem, 2012, 55, 3578.
half-life at 0.625 µM [1] [h],IC50 (human NMT1 (HsNMT1)),SMILES,"EC50 (BL-41 cells; Homo sapiens, BL-41, 72 h) [nM]",EC50 (LY 12318 cells; Homo sapiens) [nM],"EC50 (MDA MB 231 cells; Homo sapiens, MDA-MB-231, 72 h) [nM]",EC50 (BL-41 cells; 72 h) [nM],EC50 (LY 12318 cells) [nM],EC50 (MDA MB 231 cells; 72 h) [nM]
1.95,~1 nM and 1 nM,"CNC(=O)c1nn(C)c(C)c1CCOc1cc(F)ccc1-c1ccc2ncc(CCN)n2c1 [Comparative Example 2, 4-(2-{2-[3-(2-aminoethyl)imidazo[1,2-a]pyridin-6-yl]-5-fluorophenoxy}ethyl)-N,1,5-trimethyl-1H-pyrazole-3-carboxamide]",298,> 370,237,,,
0.617,10.5 nM,"CNCCc1cnc2ccc(-c3ccc(F)cc3OCCc3c(C)nn(C)c3C)cn12 [Comparative Example 3, [2-(6-{4-fluoro-2-[2-(1,3,5-trimethyl-1H-pyrazol-4-yl)ethoxy]phenyl}imidazo[1,2-a]pyridin-3-yl)ethyl](methyl)amine]",,,,,,
1.12,,"Cc1c(CCOc2cc(Cl)ccc2-c2ccc3ncc(CCN)n3c2)c(C(=O)N(C)C)nn1C [Example Compound 1, 4-(2-{2-[3-(2-aminoethyl)imidazo[1,2-a]pyridin-6-yl]-5-chlorophenoxy}ethyl)-N,N,1,5-tetramethyl-1H-pyrazole-3-carboxamide]",,,,14,27,20

# Reference: US12304909B2, “Compounds and their use in therapy” (IMPERIAL COLLEGE INNOVATIONS LIMITED, priority 2018, dated 2025)
